How the values were obtained:
Assay in all cases: KINOMEscan competition binding
Conditions in all cases: compound 10.0 µM
[1] = biological target: JAK2 JH1 catalytic (human) (UniProt O60674)
[2] = biological target: ADCK4 (human) (UniProt Q96D53)
[3] = biological target: PRKCQ (human) (UniProt Q04759)
[4] = biological target: HIPK4 (human) (UniProt Q8NE63)
[5] = biological target: MAPK6 (human) (UniProt Q16659)
[6] = biological target: TAOK2 (human) (UniProt Q9UL54)
[7] = biological target: RIPK1 (human) (UniProt Q13546)
[8] = biological target: PRKAA1 (human) (UniProt Q13131)
[9] = biological target: SRMS (human) (UniProt Q9H3Y6)
[10] = biological target: MYO3B (human) (UniProt Q8WXR4)
[11] = biological target: MYLK (human) (UniProt Q15746)
[12] = biological target: PIP4K2C (human) (UniProt Q8TBX8)
[13] = biological target: CLK4 (human) (UniProt Q9HAZ1)
[14] = test system: PIK3CA (human), P42336 [H1047Y]
[15] = biological target: CASK (human) (UniProt O14936)
[16] = biological target: INSR (human) (UniProt P06213)
[17] = biological target: STK36 (human) (UniProt Q9NRP7)
[18] = biological target: ZAP70 (human) (UniProt P43403)
[19] = biological target: PI4KB (human) (UniProt Q9UBF8)
[20] = biological target: MERTK (human) (UniProt Q12866)
[21] = biological target: MAP2K4 (human) (UniProt P45985)
[22] = biological target: TIE1 (human) (UniProt P35590)
[23] = biological target: PLK3 (human) (UniProt Q9H4B4)
[24] = biological target: MAP2K7 (human) (UniProt O14733)
[25] = biological target: CAMKK1 (human) (UniProt Q8N5S9)
[26] = biological target: CDC42BPG (human) (UniProt Q6DT37)
[27] = biological target: MAPK8 (human) (UniProt P45983)
[28] = test system: RET (human), P07949 [V804M]
[29] = test system: EGFR (human), P00533 [G719C]
[30] = biological target: DMPK (human) (UniProt Q09013)
[31] = biological target: PIK3C2G (human) (UniProt O75747)
[32] = biological target: DYRK1A (human) (UniProt Q13627)
[33] = biological target: YES1 (human) (UniProt P07947)
[34] = test system: PIK3CA (human), P42336 [E545A]
[35] = test system: EGFR (human), P00533 [L861Q]
[36] = biological target: MAP3K5 (human) (UniProt Q99683)
[37] = biological target: MYLK3 (human) (UniProt Q32MK0)
[38] = biological target: PIK3CB (human) (UniProt P42338)
[39] = biological target: ICK (human) (UniProt Q9UPZ9)
[40] = biological target: MAPK4 (human) (UniProt P31152)
[41] = biological target: EPHA5 (human) (UniProt P54756)

Sequence of PIP4K2C (human) (Q8TBX8 whole entry, looked up): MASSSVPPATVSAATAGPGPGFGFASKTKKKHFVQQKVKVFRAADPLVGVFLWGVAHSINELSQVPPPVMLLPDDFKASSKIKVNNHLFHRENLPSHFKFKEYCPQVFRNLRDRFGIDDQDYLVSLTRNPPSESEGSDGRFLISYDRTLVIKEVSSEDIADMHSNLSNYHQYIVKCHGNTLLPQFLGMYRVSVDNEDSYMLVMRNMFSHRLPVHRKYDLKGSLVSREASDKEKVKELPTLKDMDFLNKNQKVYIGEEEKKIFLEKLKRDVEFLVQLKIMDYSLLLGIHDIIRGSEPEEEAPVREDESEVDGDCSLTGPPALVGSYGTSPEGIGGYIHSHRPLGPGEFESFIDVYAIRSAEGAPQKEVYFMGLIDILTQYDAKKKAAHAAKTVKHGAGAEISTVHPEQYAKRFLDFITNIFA
Sequence of TIE1 (human) (P35590 whole entry, looked up): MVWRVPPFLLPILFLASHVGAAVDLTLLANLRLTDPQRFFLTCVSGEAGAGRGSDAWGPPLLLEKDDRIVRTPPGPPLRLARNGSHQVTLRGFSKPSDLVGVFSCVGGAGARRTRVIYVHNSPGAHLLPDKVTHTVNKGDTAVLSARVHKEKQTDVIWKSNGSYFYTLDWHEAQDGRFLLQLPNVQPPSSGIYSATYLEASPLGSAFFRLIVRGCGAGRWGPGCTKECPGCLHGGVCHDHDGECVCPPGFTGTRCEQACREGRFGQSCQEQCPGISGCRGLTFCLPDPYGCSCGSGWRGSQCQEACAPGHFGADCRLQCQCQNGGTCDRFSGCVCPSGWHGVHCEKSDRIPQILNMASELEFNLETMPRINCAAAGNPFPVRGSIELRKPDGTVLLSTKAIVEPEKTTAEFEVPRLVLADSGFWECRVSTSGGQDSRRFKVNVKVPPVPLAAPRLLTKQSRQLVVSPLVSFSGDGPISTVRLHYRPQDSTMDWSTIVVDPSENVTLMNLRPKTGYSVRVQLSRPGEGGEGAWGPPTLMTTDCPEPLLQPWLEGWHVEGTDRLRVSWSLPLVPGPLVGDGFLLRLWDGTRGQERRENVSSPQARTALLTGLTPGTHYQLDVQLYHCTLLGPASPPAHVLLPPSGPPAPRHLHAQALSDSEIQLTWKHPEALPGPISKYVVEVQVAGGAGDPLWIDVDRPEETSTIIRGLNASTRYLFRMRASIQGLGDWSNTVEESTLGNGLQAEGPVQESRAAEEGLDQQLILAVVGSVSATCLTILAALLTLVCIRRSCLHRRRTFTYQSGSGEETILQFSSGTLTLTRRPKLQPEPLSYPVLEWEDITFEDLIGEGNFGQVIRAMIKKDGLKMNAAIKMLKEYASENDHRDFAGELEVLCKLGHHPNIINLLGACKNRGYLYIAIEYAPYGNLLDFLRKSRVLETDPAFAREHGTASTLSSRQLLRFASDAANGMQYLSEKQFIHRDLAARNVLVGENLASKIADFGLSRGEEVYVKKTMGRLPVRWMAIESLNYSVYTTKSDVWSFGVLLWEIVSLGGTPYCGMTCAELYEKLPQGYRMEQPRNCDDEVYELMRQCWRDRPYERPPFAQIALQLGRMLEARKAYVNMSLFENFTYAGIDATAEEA
Sequence of PRKAA1 (human) (Q13131 whole entry, looked up): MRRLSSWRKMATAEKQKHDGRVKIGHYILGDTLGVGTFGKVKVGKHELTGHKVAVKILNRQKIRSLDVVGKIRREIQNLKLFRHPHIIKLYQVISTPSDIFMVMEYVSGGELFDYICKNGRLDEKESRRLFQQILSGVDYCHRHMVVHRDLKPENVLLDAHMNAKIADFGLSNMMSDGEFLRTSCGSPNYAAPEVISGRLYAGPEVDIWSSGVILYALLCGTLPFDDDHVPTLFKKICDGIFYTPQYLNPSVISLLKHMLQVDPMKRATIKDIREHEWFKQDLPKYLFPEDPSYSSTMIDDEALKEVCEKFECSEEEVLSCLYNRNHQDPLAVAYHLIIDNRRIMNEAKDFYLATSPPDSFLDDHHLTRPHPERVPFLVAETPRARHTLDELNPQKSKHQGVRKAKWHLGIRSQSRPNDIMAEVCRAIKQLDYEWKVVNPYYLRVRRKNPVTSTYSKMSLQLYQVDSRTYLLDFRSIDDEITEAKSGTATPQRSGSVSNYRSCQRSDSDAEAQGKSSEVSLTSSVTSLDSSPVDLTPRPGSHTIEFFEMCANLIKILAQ
Sequence of MERTK (human) (Q12866 whole entry, looked up): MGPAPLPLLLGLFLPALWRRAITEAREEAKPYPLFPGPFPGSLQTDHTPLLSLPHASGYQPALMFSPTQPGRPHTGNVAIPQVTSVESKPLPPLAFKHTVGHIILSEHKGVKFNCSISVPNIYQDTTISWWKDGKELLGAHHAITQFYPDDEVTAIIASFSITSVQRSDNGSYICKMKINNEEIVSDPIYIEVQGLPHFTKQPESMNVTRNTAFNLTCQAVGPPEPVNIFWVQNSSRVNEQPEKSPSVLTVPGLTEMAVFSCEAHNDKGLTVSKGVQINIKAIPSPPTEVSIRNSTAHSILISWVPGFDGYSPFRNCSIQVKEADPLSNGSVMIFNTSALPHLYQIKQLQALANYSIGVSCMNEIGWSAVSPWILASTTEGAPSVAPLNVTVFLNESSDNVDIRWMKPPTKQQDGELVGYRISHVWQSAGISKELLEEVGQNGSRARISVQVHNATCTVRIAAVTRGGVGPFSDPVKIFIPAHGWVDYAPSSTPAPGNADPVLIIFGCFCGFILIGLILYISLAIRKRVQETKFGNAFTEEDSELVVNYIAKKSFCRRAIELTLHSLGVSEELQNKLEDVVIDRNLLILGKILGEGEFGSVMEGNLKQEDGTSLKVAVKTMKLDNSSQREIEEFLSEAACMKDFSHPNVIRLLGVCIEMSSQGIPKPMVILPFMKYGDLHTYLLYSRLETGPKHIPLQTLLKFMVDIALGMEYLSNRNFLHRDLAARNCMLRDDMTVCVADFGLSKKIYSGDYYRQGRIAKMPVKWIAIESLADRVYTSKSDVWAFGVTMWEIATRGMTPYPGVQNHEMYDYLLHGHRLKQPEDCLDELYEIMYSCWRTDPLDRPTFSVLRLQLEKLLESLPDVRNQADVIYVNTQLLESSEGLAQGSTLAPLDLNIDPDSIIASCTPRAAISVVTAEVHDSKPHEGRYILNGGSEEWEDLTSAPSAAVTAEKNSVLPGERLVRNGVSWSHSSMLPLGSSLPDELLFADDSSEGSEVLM
Sequence of CLK4 (human) (Q9HAZ1 whole entry, looked up): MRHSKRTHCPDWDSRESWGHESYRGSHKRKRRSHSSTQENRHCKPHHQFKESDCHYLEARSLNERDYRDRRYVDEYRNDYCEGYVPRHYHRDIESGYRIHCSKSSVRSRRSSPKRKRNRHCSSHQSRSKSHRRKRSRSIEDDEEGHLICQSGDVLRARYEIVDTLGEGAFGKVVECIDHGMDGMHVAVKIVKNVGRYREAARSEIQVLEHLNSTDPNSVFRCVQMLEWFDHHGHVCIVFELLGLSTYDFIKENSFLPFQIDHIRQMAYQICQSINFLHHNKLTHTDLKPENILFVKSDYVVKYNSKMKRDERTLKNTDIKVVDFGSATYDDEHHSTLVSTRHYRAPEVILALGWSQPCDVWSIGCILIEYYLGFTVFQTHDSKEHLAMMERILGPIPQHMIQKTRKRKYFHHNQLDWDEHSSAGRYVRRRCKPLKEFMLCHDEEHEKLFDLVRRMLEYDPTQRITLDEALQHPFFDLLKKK
Sequence of YES1 (human) (P07947 whole entry, looked up): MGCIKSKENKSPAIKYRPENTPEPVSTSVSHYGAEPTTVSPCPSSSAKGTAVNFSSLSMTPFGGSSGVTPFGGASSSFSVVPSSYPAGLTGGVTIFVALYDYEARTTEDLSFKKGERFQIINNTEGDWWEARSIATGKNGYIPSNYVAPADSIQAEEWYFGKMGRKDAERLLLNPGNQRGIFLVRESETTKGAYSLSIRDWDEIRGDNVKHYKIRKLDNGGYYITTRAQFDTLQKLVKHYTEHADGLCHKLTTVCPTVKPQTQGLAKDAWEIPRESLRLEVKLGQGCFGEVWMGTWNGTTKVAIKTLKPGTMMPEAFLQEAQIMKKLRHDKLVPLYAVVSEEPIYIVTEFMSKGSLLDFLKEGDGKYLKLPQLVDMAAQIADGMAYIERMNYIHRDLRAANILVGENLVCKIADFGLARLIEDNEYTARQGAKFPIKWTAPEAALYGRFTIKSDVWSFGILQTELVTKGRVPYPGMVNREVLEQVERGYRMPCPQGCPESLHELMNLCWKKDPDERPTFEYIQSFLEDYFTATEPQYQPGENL
Sequence of MAP2K7 (human) (O14733 whole entry, looked up): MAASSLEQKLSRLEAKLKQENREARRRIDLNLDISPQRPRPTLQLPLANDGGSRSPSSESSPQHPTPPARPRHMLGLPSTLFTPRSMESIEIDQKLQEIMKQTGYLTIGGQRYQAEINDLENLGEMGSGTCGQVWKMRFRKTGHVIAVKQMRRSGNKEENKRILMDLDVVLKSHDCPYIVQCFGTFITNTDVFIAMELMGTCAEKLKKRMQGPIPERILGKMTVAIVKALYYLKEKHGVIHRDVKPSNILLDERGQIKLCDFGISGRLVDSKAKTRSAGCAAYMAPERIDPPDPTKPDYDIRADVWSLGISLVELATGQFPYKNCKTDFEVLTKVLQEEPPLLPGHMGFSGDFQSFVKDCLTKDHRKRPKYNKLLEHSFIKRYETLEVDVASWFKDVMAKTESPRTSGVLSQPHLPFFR
Sequence of SRMS (human) (Q9H3Y6 whole entry, looked up): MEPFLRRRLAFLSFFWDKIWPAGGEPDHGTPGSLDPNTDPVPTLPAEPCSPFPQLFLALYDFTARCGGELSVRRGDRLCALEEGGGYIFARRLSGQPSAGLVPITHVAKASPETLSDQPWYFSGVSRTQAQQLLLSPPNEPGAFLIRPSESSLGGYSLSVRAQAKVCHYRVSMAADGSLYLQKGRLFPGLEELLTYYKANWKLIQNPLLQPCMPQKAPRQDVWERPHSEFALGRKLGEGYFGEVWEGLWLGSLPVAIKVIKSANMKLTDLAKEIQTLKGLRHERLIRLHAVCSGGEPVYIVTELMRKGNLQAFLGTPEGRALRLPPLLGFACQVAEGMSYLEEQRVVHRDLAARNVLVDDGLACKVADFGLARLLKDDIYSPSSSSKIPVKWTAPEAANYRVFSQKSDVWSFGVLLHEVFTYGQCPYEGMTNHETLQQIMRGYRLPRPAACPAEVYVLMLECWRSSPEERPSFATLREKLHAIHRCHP

COc1cc(C(=O)N2CCC(N3CCN(C)CC3)CC2)ccc1Nc1ncc2c(n1)N(C)c1ccccc1C(=O)N2C
kinase still bound, per cent of control [1]: 70%
kinase still bound, per cent of control [2]: 94%
kinase still bound, per cent of control [3]: 100%
kinase still bound, per cent of control [4]: 100%
kinase still bound, per cent of control [5]: 100%
kinase still bound, per cent of control [6]: 65%
kinase still bound, per cent of control [7]: 99%
kinase still bound, per cent of control [8]: 51%
kinase still bound, per cent of control [9]: 77%
kinase still bound, per cent of control [10]: 83%
residual activity [11]: 8.7%
kinase still bound, per cent of control [12]: 40%
kinase still bound, per cent of control [13]: 54%
kinase still bound, per cent of control [14]: 71%
kinase still bound, per cent of control [15]: 85%
kinase still bound, per cent of control [16]: 84%
kinase still bound, per cent of control [17]: 97%
kinase still bound, per cent of control [18]: 79%
kinase still bound, per cent of control [19]: 95%
kinase still bound, per cent of control [20]: 100%
kinase still bound, per cent of control [21]: 100%
kinase still bound, per cent of control [22]: 100%
kinase still bound, per cent of control [23]: 51%
kinase still bound, per cent of control [24]: 100%
kinase still bound, per cent of control [25]: 73%
kinase still bound, per cent of control [26]: 100%
kinase still bound, per cent of control [27]: 95%
kinase still bound, per cent of control [28]: 80%
kinase still bound, per cent of control [29]: 100%
kinase still bound, per cent of control [30]: 100%
kinase still bound, per cent of control [31]: 100%
kinase still bound, per cent of control [32]: 99%
kinase still bound, per cent of control [33]: 100%
kinase still bound, per cent of control [34]: 98%
kinase still bound, per cent of control [35]: 100%
kinase still bound, per cent of control [36]: 100%
kinase still bound, per cent of control [37]: 100%
kinase still bound, per cent of control [38]: 96%
kinase still bound, per cent of control [39]: 90%
kinase still bound, per cent of control [40]: 100%
kinase still bound, per cent of control [41]: 95%
